Source: patent US12594268B2, “Methods of treating Fabry disease in patients having a mutation in the GLA gene” (Amicus Therapeutics, Inc., priority 2018, dated 2026)
Residue numbers refer to the chain shown, from its start.

Assays:
Format in all cases: cell-based
α-Gal A mutant form Q57R = target: T1, α-Gal A mutant form Q57R (Homo sapiens, UniProt P06280, Q57R); test: α-Gal A activity in lysates of transfected HEK-293 cells, Q57R
T1 construct: expressed in transfected cells; host or cells: HEK-293
T1 sequence (P06280 32-429 Q57R): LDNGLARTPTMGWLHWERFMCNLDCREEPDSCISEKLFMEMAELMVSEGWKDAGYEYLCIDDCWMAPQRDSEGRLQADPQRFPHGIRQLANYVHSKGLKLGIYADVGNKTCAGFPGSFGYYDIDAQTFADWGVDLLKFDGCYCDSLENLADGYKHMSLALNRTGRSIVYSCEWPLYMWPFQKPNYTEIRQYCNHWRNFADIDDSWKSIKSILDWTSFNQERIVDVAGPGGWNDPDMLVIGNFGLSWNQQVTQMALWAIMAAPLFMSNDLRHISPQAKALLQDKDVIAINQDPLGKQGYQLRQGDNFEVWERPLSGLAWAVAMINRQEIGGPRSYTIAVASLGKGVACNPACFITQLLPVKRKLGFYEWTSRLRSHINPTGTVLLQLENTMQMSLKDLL
Method: (§1) Baseline and 10 μM migalastat α-Gal A activity: Differences in the α-Gal A activity between lysates incubated in the absence and presence of 10 μM migalastat were determined using a one-tailed, Mann Whitney U test; an increase at 10 μM migalastat with a p<0.05 was considered significant.
(§2) 10 μM migalastat α-Gal A activity (% WT)=(α-Gal A activity in mutant transfected cell lysates incubated with 10 μM migalastat÷α-Gal A activity in wild-type transfected cell lysates without migalastat)*100.
(§3) Absolute increase (% WT)=is the 10 μM migalastat α-Gal A activity (% WT) minus the baseline α-Gal A activity (% WT).
(§4) Relative increase is the 10 μM migalastat α-Gal A activity in mutant transfected cell lysates÷baseline α-Gal A activity in mutant transfected cell lysates incubated without migalastat.

[1] = target: T2, α-Gal A mutant form S62delinsLA (Homo sapiens, UniProt P06280, INS61L/S62A); test: α-Gal A activity in lysates of transfected HEK-293 cells, S62delinsLA
T2 construct: expressed in transfected cells; host or cells: HEK-293
T2 sequence (P06280 with tags, fused parts or gaps INS61L/S62A): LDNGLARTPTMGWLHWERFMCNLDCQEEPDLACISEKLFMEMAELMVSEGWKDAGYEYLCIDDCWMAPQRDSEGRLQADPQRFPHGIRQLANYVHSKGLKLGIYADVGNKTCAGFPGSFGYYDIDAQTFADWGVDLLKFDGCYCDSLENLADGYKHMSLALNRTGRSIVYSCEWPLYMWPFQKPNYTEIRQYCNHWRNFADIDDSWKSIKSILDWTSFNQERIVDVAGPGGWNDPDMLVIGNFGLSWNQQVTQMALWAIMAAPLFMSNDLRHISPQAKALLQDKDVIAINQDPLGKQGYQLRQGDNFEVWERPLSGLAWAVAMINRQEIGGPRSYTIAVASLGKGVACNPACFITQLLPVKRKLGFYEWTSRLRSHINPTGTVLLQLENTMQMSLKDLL
Method: as §1, §2, §3, §4

[2] = target: T3, α-Gal A mutant form K391E (Homo sapiens, UniProt P06280, K391E); test: α-Gal A activity in lysates of transfected HEK-293 cells, K391E
T3 construct: expressed in transfected cells; host or cells: HEK-293
T3 sequence (P06280 32-429 K391E): T1 sequence (P06280 32-429 Q57R) with R26Q, K360E
Method: as §1, §2, §3, §4

[3] = target: T4, α-Gal A mutant form Q107R (Homo sapiens, UniProt P06280, Q107R); test: α-Gal A activity in lysates of transfected HEK-293 cells, Q107R
T4 construct: expressed in transfected cells; host or cells: HEK-293
T4 sequence (P06280 32-429 Q107R): T1 sequence (P06280 32-429 Q57R) with R26Q, Q76R
Method: as §1, §2, §3, §4

[4] = target: T5, α-Gal A mutant form P323T (Homo sapiens, UniProt P06280, P323T); test: α-Gal A activity in lysates of transfected HEK-293 cells, P323T
T5 construct: expressed in transfected cells; host or cells: HEK-293
T5 sequence (P06280 32-429 P323T): T1 sequence (P06280 32-429 Q57R) with R26Q, P292T
Method: as §1, §2, §3, §4

[5] = 10 μM migalastat minus baseline
[6] = 10 μM migalastat ÷ baseline activity
[7] = HEK-293 lysates, 10 μM migalastat, 5 days, mean ± SEM

Absolute increase (% WT) (α-Gal A mutant form Q57R; [5]): 24.0 % WT | Relative increase (α-Gal A mutant form Q57R; [6]): 1.30 | 10 μM migalastat α-Gal A activity (α-Gal A mutant form Q57R; [7]): 26357 ± 916 nmol/mg/h | 10 μM migalastat α-Gal A activity (% WT) (α-Gal A mutant form Q57R; [7]): 105.0 ± 3.0 % WT | Absolute increase (% WT) [1, 5]: 20.9 % WT | Relative increase [1, 6]: 50.92 | 10 μM migalastat α-Gal A activity [1, 7]: 8115 ± 810 nmol/mg/h | 10 μM migalastat α-Gal A activity (% WT) [1, 7]: 21.3 ± 1.7 % WT | Absolute increase (% WT) [2, 5]: 20.0 % WT | Relative increase [2, 6]: 2.03 | 10 μM migalastat α-Gal A activity [2, 7]: 15979 ± 1367 nmol/mg/h | 10 μM migalastat α-Gal A activity (% WT) [2, 7]: 40.4 ± 2.9 % WT | Absolute increase (% WT) [3, 5]: 21.5 % WT | Relative increase [3, 6]: 1.27 | 10 μM migalastat α-Gal A activity [3, 7]: 31193 ± 2248 nmol/mg/h | 10 μM migalastat α-Gal A activity (% WT) [3, 7]: 109.8 ± 8.4 % WT | Absolute increase (% WT) [4, 5]: 12.3 % WT | Relative increase [4, 6]: 1.21 | 10 μM migalastat α-Gal A activity [4, 7]: 29631 ± 1144 nmol/mg/h | 10 μM migalastat α-Gal A activity (% WT) [4, 7]: 71.3 ± 4.1 % WT
Structure (SMILES): OC[C@H]1NC[C@H](O)[C@@H](O)[C@H]1O [migalastat, (2R,3S,4R,5S)-2-(hydroxymethyl) piperdine-3,4,5-triol]
